Measured values: patent US20230174454A1, “PROCESS OF SYNTHESIZING AND PURIFYING (3R)-HYDROXYBUTYL (3R)-HYDROXYBUTANOATE” (Genomatica, Inc., priority 2020, published 2023)

How the values were obtained:
[1] = Study to determine the boiling point of (3R)-hydroxybutyl (3R)-hydroxybutyrate, with colour change on boiling; assay type: physicochemical
Procedure: A study to determine the boiling point of (3R)-hydroxybutyl (3R)-hydroxybutyrate was performed.

Miscibility with water = assay type: physicochemical
Source text: In one specific embodiment, the compound of interest is (R)-3-hydroxybutyl (R)-3-hydroxybutanoate.

C[C@@H](O)CCOC(=O)C[C@@H](C)O [(3R)-hydroxybutyl (3R)-hydroxybutyrate, (R)-3-hydroxybutyl (R)-3-hydroxybutanoate]
Measured Boiling Point ([1]; Pressure 7 mbar): 155-159 °C | Measured Boiling Point ([1]; Pressure 15 mbar): 165-169 °C | Measured Boiling Point ([1]; Pressure 30 mbar): 174-179 °C | Measured Boiling Point ([1]; Pressure 60 mbar): 186-191 °C | Measured Boiling Point ([1]; Pressure 80 mbar): 197-204 °C | Measured Boiling Point ([1]; Pressure 120 mbar): 208-212 °C | Measured Boiling Point ([1]; Pressure 240 mbar): 215-219 °C | Measured Boiling Point ([1]; Pressure 500 mbar): 224-229 °C | Measured Boiling Point ([1]; Pressure 1000 mbar): 274-280 °C | Color Change ([1]; boiling at 7 mbar): no color change after 2 h of boiling | Color Change ([1]; boiling at 15 mbar): no color change after 2 h of boiling | Color Change ([1]; boiling at 30 mbar): no color change after 2 h of boiling | Color Change ([1]; boiling at 60 mbar): no color change after 2 h of boiling | Color Change ([1]; boiling at 80 mbar): no color change after 2 h of boiling | Color Change ([1]; boiling at 120 mbar): no color change after 1 h of boiling, very slight yellow tint is present after 1 h and 30 min of boiling | Color Change ([1]; boiling at 240 mbar): no color change after 1 h of boiling, very slight yellow tint is present after 1 h and 30 min of boiling | Color Change ([1]; boiling at 500 mbar): no color change after 1 h of boiling, very slight yellow tint is present after 1 h and 30 min of boiling | Color Change ([1]; boiling at 1000 mbar): slight yellow tint is present after 1 hour of boiling | miscibility with water (Miscibility with water; 50/50 (w/w) mixture of water/(R)-3-hydroxybutyl (R)-3-hydroxybutanoate): completely miscible with water | miscibility with water (Miscibility with water; 60/40 (w/w) mixture of water/(R)-3-hydroxybutyl (R)-3-hydroxybutanoate): completely miscible with water
